Laboratory results: doi:10.1101/571604v1 (biorxiv, 2019)

Tests used:
[1] = target: T1, FPR2 (human blood neutrophils) (Homo sapiens, UniProt P25090); experiment: NADPH-oxidase superoxide release, isoluminol chemiluminescence, peak response; assay type: cell-based; details: agonist; naive neutrophils, 37 °C, pH 7.3
T1 sequence (P25090 1-351): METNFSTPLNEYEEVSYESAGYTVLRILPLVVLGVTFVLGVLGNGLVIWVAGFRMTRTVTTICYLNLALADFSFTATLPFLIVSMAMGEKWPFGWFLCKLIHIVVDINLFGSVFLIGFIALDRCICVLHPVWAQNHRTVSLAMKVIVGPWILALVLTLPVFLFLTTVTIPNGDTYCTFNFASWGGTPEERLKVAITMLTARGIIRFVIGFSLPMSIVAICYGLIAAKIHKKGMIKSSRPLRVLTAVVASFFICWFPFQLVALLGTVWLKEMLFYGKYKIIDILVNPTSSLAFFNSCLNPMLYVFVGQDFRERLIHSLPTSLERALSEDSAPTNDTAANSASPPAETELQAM

[2] = target: T2, FPR2 (PathHunter eXpress CHO-K1 FPR2 cells) (Homo sapiens, UniProt P25090); experiment: beta-arrestin recruitment, PathHunter enzyme fragment complementation; assay type: cell-based
T2 sequence (P25090 1-351): T1 sequence (P25090 1-351)

Question: Which results are given for `Cc1cccc(-c2oc(C)nc2C(=O)Nc2cnn(Cc3nc(C(C)(F)F)co3)n2)c1` [Act-389949, N-(2-{[4-(1,1-difluoroethyl)-1,3-oxazol-2-yl]methyl}-2H-1,2,3-triazol-4-yl)-2-methyl-5-(3-methylphenyl)-1,3-oxazole-4-carboxamide]?
Answer: EC50 [1]: ~10 nM; EC50 [2]: ~20 nM
